Measurements taken from the supplement of paper PMC10307832.

How the values were obtained:
Test in all cases: relative viability (nuclei count vs DMSO), 5 days (fraction); higher = more cells survive
17-AAG + Trametinib = compound: C=CCNC1=C2C[C@@H](C)C[C@H](OC)[C@H](O)[C@@H](C)/C=C(\C)[C@H](OC(N)=O)[C@@H](OC)/C=C\C=C(/C)C(=O)NC(=CC1=O)C2=O [17-AAG] + CC(=O)Nc1cccc(-n2c(=O)n(C3CC3)c(=O)c3c(Nc4ccc(I)cc4F)n(C)c(=O)c(C)c32)c1 [Trametinib] (partner 0.02 µM)
In short: (§1)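 Lung cancer cell lines in 1536-well plates were dosed by pin tool the day after seeding, either with one drug alone or with a fixed anchor-drug dose plus five library-drug doses (not always all listed) in √10 steps. After 5 days, cells were fixed and their nuclei stained in one step (final 0.05% Triton X-100, 1% formaldehyde, 1 ug/ml Hoechst), then counted on 4× images. Relative viability is the nuclei count in treated wells divided by that in vehicle wells. Values are medians of duplicate plates.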

17-AAG + Phenformin = compound: C=CCNC1=C2C[C@@H](C)C[C@H](OC)[C@H](O)[C@@H](C)/C=C(\C)[C@H](OC(N)=O)[C@@H](OC)/C=C\C=C(/C)C(=O)NC(=CC1=O)C2=O [17-AAG] + N=C(N)NC(=N)NCCc1ccccc1 [Phenformin] (partner 250 µM)
In short: as §1

17-AAG + Pemetrexed = compound: C=CCNC1=C2C[C@@H](C)C[C@H](OC)[C@H](O)[C@@H](C)/C=C(\C)[C@H](OC(N)=O)[C@@H](OC)/C=C\C=C(/C)C(=O)NC(=CC1=O)C2=O [17-AAG] + Nc1nc2[nH]cc(CCc3ccc(C(=O)N[C@@H](CCC(=O)O)C(=O)O)cc3)c2c(=O)[nH]1 [Pemetrexed] (partner 0.2 µM)
In short: as §1

17-AAG + Navitoclax = compound: C=CCNC1=C2C[C@@H](C)C[C@H](OC)[C@H](O)[C@@H](C)/C=C(\C)[C@H](OC(N)=O)[C@@H](OC)/C=C\C=C(/C)C(=O)NC(=CC1=O)C2=O [17-AAG] + CC1(C)CCC(c2ccc(Cl)cc2)=C(CN2CCN(c3ccc(C(=O)NS(=O)(=O)c4ccc(N[C@H](CCN5CCOCC5)CSc5ccccc5)c(S(=O)(=O)C(F)(F)F)c4)cc3)CC2)C1 [Navitoclax] (partner 0.5 µM)
In short: as §1

Row | Cell Line | relative viability (17-AAG + Trametinib; first compound 0.00128 µM) | relative viability (17-AAG + Trametinib; first compound 0.004048 µM) | relative viability (17-AAG + Trametinib; first compound 0.0128 µM) | relative viability (17-AAG + Trametinib; first compound 0.04048 µM) | relative viability (17-AAG + Trametinib; first compound 0.128 µM) | relative viability (17-AAG + Phenformin; first compound 0.00128 µM) | relative viability (17-AAG + Phenformin; first compound 0.004048 µM) | relative viability (17-AAG + Phenformin; first compound 0.0128 µM) | relative viability (17-AAG + Phenformin; first compound 0.04048 µM) | relative viability (17-AAG + Phenformin; first compound 0.128 µM) | relative viability (17-AAG + Pemetrexed; first compound 0.00128 µM) | relative viability (17-AAG + Pemetrexed; first compound 0.004048 µM) | relative viability (17-AAG + Pemetrexed; first compound 0.0128 µM) | relative viability (17-AAG + Pemetrexed; first compound 0.04048 µM) | relative viability (17-AAG + Pemetrexed; first compound 0.128 µM) | relative viability (17-AAG + Navitoclax; first compound 0.00128 µM) | relative viability (17-AAG + Navitoclax; first compound 0.004048 µM) | relative viability (17-AAG + Navitoclax; first compound 0.0128 µM) | relative viability (17-AAG + Navitoclax; first compound 0.04048 µM) | relative viability (17-AAG + Navitoclax; first compound 0.128 µM)
1 | NCI-H1755 | 0.808 | 0.716 | 0.705 | 0.741 | 0.23 | 0.622 | 0.57 | 0.578 | 0.254 | 0.0941 | 0.47 | 0.404 | 0.407 | 0.355 | 0.214 | 1.01 | 1 | 0.957 | 0.8 | 0.315
2 | NCI-H2228 | 0.378 | 0.232 | 0.102 | 0.113 | 0.144 | 0.337 | 0.185 | 0.0958 | 0.099 | 0.0688 | 0.333 | 0.158 | 0.11 | 0.148 | 0.12 | 0.893 | 0.486 | 0.146 | 0.168 | 0.112
3 | NCI-H2087 | 0.206 | 0.213 | 0.184 | 0.115 | 0.124 | 0.394 | 0.232 | 0.138 | 0.125 | 0.105 | 0.606 | 0.618 | 0.354 | 0.163 | 0.128 | 0.96 | 0.754 | 0.284 | 0.202 | 0.195
4 | LU99A | 0.549 | 0.538 | 0.508 | 0.384 | 0.134 | 0.725 | 0.734 | 0.468 | 0.225 | 0.116 | 0.175 | 0.184 | 0.165 | 0.188 | 0.111 | 0.817 | 0.821 | 0.921 | 0.271 | 0.132
5 | NCI-H1355 | 0.466 | 0.446 | 0.363 | 0.241 | 0.167 | 0.492 | 0.457 | 0.388 | 0.186 | 0.165 | 1 | 0.993 | 1.06 | 0.623 | 0.164 | 0.927 | 0.944 | 0.958 | 0.449 | 0.373
6 | NCI-H596 | 0.841 | 0.852 | 0.767 | 0.704 | 0.308 | 0.829 | 0.68 | 0.554 | 0.781 | 0.309 | 0.558 | 0.542 | 0.508 | 0.505 | 0.337 | 1.02 | 0.91 | 0.908 | 0.834 | 0.518
7 | NCI-H727 | 0.356 | 0.409 | 0.319 | 0.237 | 0.221 | 0.535 | 0.445 | 0.475 | 0.287 | 0.277 | – | – | – | – | – | 0.426 | 0.455 | 0.214 | 0.206 | 0.226
8 | NCI-H661 | 0.588 | 0.533 | 0.522 | 0.295 | 0.23 | 0.304 | 0.293 | 0.293 | 0.256 | 0.188 | 0.883 | 0.926 | 0.861 | 0.367 | 0.31 | – | – | – | – | –
9 | NCI-H650 | 0.983 | 1.03 | 0.934 | 0.551 | 0.224 | 0.445 | 0.459 | 0.421 | 0.308 | 0.228 | 1.03 | 0.895 | 0.91 | 0.657 | 0.236 | – | – | – | – | –
10 | 201T | 0.778 | 0.729 | 0.688 | 0.702 | 0.682 | 0.484 | 0.391 | 0.341 | 0.244 | 0.248 | 0.317 | 0.342 | 0.361 | 0.23 | 0.213 | 1.21 | 1.21 | 1.17 | 1.16 | 0.973
11 | PC-14 | 0.619 | 0.111 | 0.0838 | 0.101 | 0.0786 | 0.449 | 0.44 | 0.126 | 0.123 | 0.109 | 0.143 | 0.166 | 0.111 | 0.0924 | 0.0882 | 1.04 | 1.02 | 1.02 | 0.118 | 0.0935
12 | UMC-11 | 0.672 | 0.773 | 0.629 | 0.234 | 0.145 | 0.297 | 0.292 | 0.249 | 0.223 | 0.19 | 0.793 | 0.741 | 0.576 | 0.246 | 0.183 | 0.363 | 0.37 | 0.304 | 0.17 | 0.138
13 | NCI-H522 | 0.724 | 0.836 | 0.679 | 0.686 | 0.374 | 0.627 | 0.599 | 0.635 | 0.294 | 0.471 | 0.974 | 1.01 | 0.673 | 0.764 | 0.372 | – | – | – | – | –
14 | LCLC-103H | 0.711 | 0.692 | 0.661 | 0.739 | 0.669 | 0.351 | 0.345 | 0.3 | 0.346 | 0.325 | 0.452 | 0.48 | 0.461 | 0.557 | 0.61 | – | – | – | – | –
15 | ABC-1 | – | – | – | – | – | 0.212 | 0.261 | 0.255 | 0.246 | 0.261 | – | – | – | – | – | – | – | – | – | –
16 | NCI-H358 | 0.128 | 0.0832 | 0.0659 | 0.0673 | 0.0679 | 0.321 | 0.155 | 0.0612 | 0.0774 | 0.0534 | 0.156 | 0.19 | 0.126 | 0.0833 | 0.0832 | – | – | – | – | –
17 | NCI-H1563 | – | – | – | – | – | 0.657 | 0.594 | 0.52 | 0.464 | 0.473 | 0.773 | 0.898 | 0.468 | 0.452 | 0.414 | – | – | – | – | –
18 | EBC-1 | – | – | – | – | – | – | – | – | – | – | – | – | – | – | – | 0.514 | 0.203 | 0.157 | 0.182 | 0.126
19 | Calu-6 | – | – | – | – | – | – | – | – | – | – | – | – | – | – | – | 0.783 | 0.735 | 0.703 | 0.197 | 0.122
